Measured values reported in patent publication US20240293392A1, “INHIBITOR COMPOUNDS” (NeoPhore Limited, priority 2021, published 2024).

Assays:
[1] = molecular target: T1, recombinant N-terminal MLH1 (residues 15-340) (Homo sapiens, UniProt P40692); test: Fluorescence Polarisation Assay for MLH1; assay type: binding; conditions: fluorescence polarisation probe displacement; 100 nM N-terminal MLH1, 5 nM probe compound
T1 construct: recombinant N-terminal MLH1 (residues 15-340)
T1 sequence (P40692 15-340): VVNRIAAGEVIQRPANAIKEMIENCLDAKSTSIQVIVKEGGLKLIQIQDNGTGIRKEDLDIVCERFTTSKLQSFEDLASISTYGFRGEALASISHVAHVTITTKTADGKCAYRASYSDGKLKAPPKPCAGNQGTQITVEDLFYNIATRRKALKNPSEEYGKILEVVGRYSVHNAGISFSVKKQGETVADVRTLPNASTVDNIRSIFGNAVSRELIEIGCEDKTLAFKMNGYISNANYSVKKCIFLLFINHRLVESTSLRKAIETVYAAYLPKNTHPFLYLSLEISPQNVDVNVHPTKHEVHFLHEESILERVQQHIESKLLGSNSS
Method in brief: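 FP displacement assay: 100 nM MLH1 (residues 15-340) preincubated 30 min at room temperature with compound in 25 mM HEPES pH 7.5, 250 mM NaCl, 10 mM MgCl2, 0.01% Triton X-100, 5 mM DTT, then 5 nM rhodamine-labelled probe added and read immediately. Data normalised to no-inhibitor and no-enzyme controls.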

[2] = molecular target: T2, recombinant N-terminal PMS2 (residues 1-365) (Homo sapiens, UniProt P54278); test: Fluorescence Polarisation Assay for PMS2; assay type: binding; conditions: fluorescence polarisation probe displacement; 10 nM N-terminal PMS2, 5 nM probe compound; read-out: PMS2 IC50
T2 construct: recombinant N-terminal PMS2 (residues 1-365)
T2 sequence (P54278 1-365): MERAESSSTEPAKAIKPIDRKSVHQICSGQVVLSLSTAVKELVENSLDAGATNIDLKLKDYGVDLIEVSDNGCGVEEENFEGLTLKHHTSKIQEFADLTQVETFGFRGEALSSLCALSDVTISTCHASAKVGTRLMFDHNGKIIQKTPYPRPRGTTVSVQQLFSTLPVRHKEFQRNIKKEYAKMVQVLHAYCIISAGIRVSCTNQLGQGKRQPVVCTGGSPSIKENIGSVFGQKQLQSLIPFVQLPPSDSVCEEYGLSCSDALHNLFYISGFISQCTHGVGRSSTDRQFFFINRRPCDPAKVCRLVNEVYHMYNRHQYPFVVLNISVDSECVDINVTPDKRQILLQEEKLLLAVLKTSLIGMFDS
Method in brief: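 Competition fluorescence polarisation with 10 nM N-terminal PMS2 and 5 nM fluorescent probe (final), read after 1 h at room temperature following 30 min compound pre-incubation. Data normalised to no-inhibitor and no-enzyme controls; single-point screening or serial dilutions for potency.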

IC50 [1] [nM]	IC50 [2] [nM]	Compound
1000 to 10000	1000 to 10000	CNCc1cccc2c1CN(C(=O)c1c(O)cc(O)cc1OCc1ccccc1)C2 [Example 79, (2-(Benzyloxy)-4,6-dihydroxyphenyl) (4-((methylamino)methyl)isoindolin-2-yl) methanone]
1000 to 10000	1000 to 10000	O=C(c1c(O)cc(O)cc1OCc1ccccc1)N1Cc2cccc(NC3COCC(F)(F)C3)c2C1 (stereo not shown) [Example 32, (2-(Benzyloxy)-4,6-dihydroxyphenyl)(4-((5,5-difluorotetrahydro-2H-pyran-3-yl)amino)isoindolin-2-yl)methanone]
1000 to 10000	1000 to 10000	O=C(c1c(O)cc(O)cc1OCc1ccccc1)N1Cc2cccc(CN3CCOCC3)c2C1 [Example 10, (2-(Benzyloxy)-4,6-dihydroxyphenyl)(4-(morpholinomethyl)isoindolin-2-yl)methanone]
< 1000	1000 to 10000	Cn1cc(Nc2cccc3c2CN(C(=O)c2c(O)cc(O)cc2OCc2ccccc2)CC3)ccc1=O [Example 135, 5-((2-(2-(Benzyloxy)-4,6-dihydroxybenzoyl)-1,2,3,4-tetrahydroisoquinolin-8-yl)amino)-1-methylpyridin-2(1H)-one]
< 1000	> 10000	O=C(c1c(O)cc(O)cc1OCc1ccccc1)N1CCc2cccc(NC3CCS(=O)(=O)C3)c2C1 (single isomer, unassigned) [Example 147a, (2-(Benzyloxy)-4,6-dihydroxyphenyl)(8-((1,1-dioxidotetrahydrothiophen-3-yl)amino)-3,4-dihydroisoquinolin-2(1H)-yl)methanone]
< 1000	1000 to 10000	O=C(c1c(O)cc(O)cc1OCc1ccccc1)N1Cc2cccc(NC34CCC(C3)OC4)c2C1 (stereo not shown) [Example 53, (4-((2-Oxabicyclo[2.2.1]heptan-4-yl)amino)isoindolin-2-yl)(2-(benzyloxy)-4,6-dihydroxyphenyl)methanone]
1000 to 10000	1000 to 10000	CN1CCN(Cc2cccc3c2CN(C(=O)c2c(O)cc(O)cc2OCc2ccccc2)C3)CC1 [Example 9, (2-(Benzyloxy)-4,6-dihydroxyphenyl)(4-((4-methylpiperazin-1-yl)methyl)isoindolin-2-yl)methanone]
< 1000	< 1000	CN1C[C@@H](Nc2cccc3c2CN(C(=O)c2c(O)cc(O)cc2OCc2ccccc2)C3)CC1=O [Example 137, (S)-4-((2-(2-(Benzyloxy)-4,6-dihydroxybenzoyl)isoindolin-4-yl)amino)-1-methylpyrrolidin-2-one]
< 1000	1000 to 10000	CN(C)Cc1cc2c(c(N[C@@H]3CCOC3)c1)CN(C(=O)c1c(O)cc(O)cc1OCc1ccccc1)CC2 [Example 126, (R)-(2-(Benzyloxy)-4,6-dihydroxyphenyl)(6-((dimethylamino)methyl)-8-((tetrahydrofuran-3-yl)amino)-3,4-dihydroisoquinolin-2(1H)-yl)methanone]
< 1000	> 10000	CN(C)C(=O)N1CCC(Nc2cccc3c2CN(C(=O)c2c(O)cc(O)cc2OCc2ccccc2)CC3)C1 (stereo not shown) [Example 113, 3-((2-(2-(Benzyloxy)-4,6-dihydroxybenzoyl)-1,2,3,4-tetrahydroisoquinolin-8-yl)amino)-N,N-dimethylpyrrolidine-1-carboxamide]
< 1000	< 1000	CN1CC(Nc2cccc3c2CN(C(=O)c2c(O)cc(O)cc2OCc2ccccc2)CC3)CC1=O (single isomer, unassigned) [Example 62, 4-((2-(2-(Benzyloxy)-4,6-dihydroxybenzoyl)-1,2,3,4-tetrahydroisoquinolin-8-yl)amino)-1-methylpyrrolidin-2-one]
< 1000	> 10000	O=C(c1c(O)cc(O)cc1OCc1ccccn1)N1CCc2cccc(NC3COC3)c2C1 [Example 57, (2,4-Dihydroxy-6-(pyridin-2-ylmethoxy)phenyl)(8-(oxetan-3-ylamino)-3,4-dihydroisoquinolin-2(1H)-yl)methanone]
1000 to 10000	> 10000	COC1COCC1Nc1cccc2c1CN(C(=O)c1c(O)cc(O)cc1OCc1ccccc1)CC2 (stereo not shown) [Example 148, (2-(Benzyloxy)-4,6-dihydroxyphenyl)(8-((4-methoxytetrahydrofuran-3-yl)amino)-3,4-dihydroisoquinolin-2(1H)-yl)methanone]
< 1000	1000 to 10000	COCCOc1cc2c(c(N[C@H]3CCOC3)c1)CN(C(=O)c1c(O)cc(O)cc1OCc1ccccc1)CC2 [Example 64, (S)-(2-(Benzyloxy)-4,6-dihydroxyphenyl)(6-(2-methoxyethoxy)-8-((tetrahydrofuran-3-yl)amino)-3,4-dihydroisoquinolin-2(1H)-yl)methanone]
1000 to 10000	1000 to 10000	CC(=O)Nc1cccc2c1CN(C(=O)c1c(O)cc(O)cc1OCc1ccccc1)CC2 [Example 101, N-(2-(2-(benzyloxy)-4,6-dihydroxybenzoyl)-1,2,3,4-tetrahydroisoquinolin-8-yl)acetamide]
< 1000	< 1000	O=C(c1c(O)cc(O)cc1OCc1ccccc1)N1Cc2cccc(OCc3cncnc3)c2C1 [Example 89, (2-(Benzyloxy)-4,6-dihydroxyphenyl)(4-(pyrimidin-5-ylmethoxy)isoindolin-2-yl)methanone]
1000 to 10000	> 10000	O=C(c1c(O)cc(O)cc1OCc1ccccc1)N1Cc2cccc(NC3CCCOC3)c2C1 (single isomer, unassigned) [Example 31, (2-(Benzyloxy)-4,6-dihydroxyphenyl)(4-((tetrahydro-2H-pyran-3-yl)amino)isoindolin-2-yl)methanone]
< 1000	1000 to 10000	CC12CC(Nc3cccc4c3CN(C(=O)c3c(O)cc(O)cc3OCc3ccccc3)C4)(CO1)C2 [Example 52, (2-(Benzyloxy)-4,6-dihydroxyphenyl)(4-((1-methyl-2-oxabicyclo[2.1.1]hexan-4-yl)amino)isoindolin-2-yl)methanone]
< 1000	1000 to 10000	O=C(c1c(O)cc(O)cc1OCc1ccc(F)cc1)N1Cc2cccc(NC3CCOC3)c2C1 (stereo not shown) [Example 37, (2-((4-Fluorobenzyl)oxy)-4,6-dihydroxyphenyl)(4-((tetrahydrofuran-3-yl)amino)isoindolin-2-yl)methanone]
1000 to 10000	> 10000	CN1CCC(Nc2cccc3c2CN(C(=O)c2c(O)cc(O)cc2OCc2ccccc2)CC3)CC1=O (stereo not shown) [Example 114, 4-((2-(2-(Benzyloxy)-4,6-dihydroxybenzoyl)-1,2,3,4-tetrahydroisoquinolin-8-yl)amino)-1-methylpiperidin-2-one]
1000 to 10000	> 10000	COCCOc1cc2c(c(N[C@@H]3CCOC3)c1)CN(C(=O)c1c(O)cc(O)cc1OCC1CC1)CC2 [Example 141, (R)-(2-(Cyclopropylmethoxy)-4,6-dihydroxyphenyl)(6-(2-methoxyethoxy)-8-((tetrahydrofuran-3-yl)amino)-3,4-dihydroisoquinolin-2(1H)-yl)methanone]
1000 to 10000	1000 to 10000	COc1ccc2c(c1)CCN(C(=O)c1c(O)cc(O)cc1OCc1ccccc1)C2 [Example 48, (2-Benzyloxy-4,6-dihydroxy-phenyl)-(6-methoxy-3,4-dihydro-1H-isoquinolin-2-yl)methanone]
< 1000	1000 to 10000	O=C(c1c(O)cc(O)cc1OCc1ccccc1)N1Cc2cccc(N[C@@H]3CCOC3)c2C1 [Example 23, (R)-(2-(Benzyloxy)-4,6-dihydroxyphenyl)(4-((tetrahydrofuran-3-yl)amino)isoindolin-2-yl)methanone]
< 1000	1000 to 10000	O=C(c1c(O)cc(O)cc1OCc1ccccc1)N1Cc2cccc(NC3CCOC3)c2C1 (stereo not shown) [Example 6, (2-(Benzyloxy)-4,6-dihydroxyphenyl)(4-((tetrahydrofuran-3-yl)amino)isoindolin-2-yl)methanone]
< 1000	1000 to 10000	CNc1cccc2c1CN(C(=O)c1c(O)cc(O)cc1OCc1ccccc1)CC2 [Example 43, (2-(Benzyloxy)-4,6-dihydroxyphenyl)(8-(methylamino)-3,4-dihydroisoquinolin-2(1H)-yl)methanone]
< 1000	> 10000	CC(=O)N1CC[C@H](Nc2cccc3c2CN(C(=O)c2c(O)cc(O)cc2OCc2ccccc2)CC3)C1 [Example 65, (S)-1-(3-((2-(2-(Benzyloxy)-4,6-dihydroxybenzoyl)-1,2,3,4-tetrahydroisoquinolin-8-yl)amino)pyrrolidin-1-yl)ethan-1-one]
